Reference: the Kinase Knowledgebase extract (Sharma et al. 2016)

biological target: MAPK14 (human) (UniProt Q16539); experiment: Inhibition of MAPK14 Kinase Activity
Sequence (Q16539 whole entry, looked up): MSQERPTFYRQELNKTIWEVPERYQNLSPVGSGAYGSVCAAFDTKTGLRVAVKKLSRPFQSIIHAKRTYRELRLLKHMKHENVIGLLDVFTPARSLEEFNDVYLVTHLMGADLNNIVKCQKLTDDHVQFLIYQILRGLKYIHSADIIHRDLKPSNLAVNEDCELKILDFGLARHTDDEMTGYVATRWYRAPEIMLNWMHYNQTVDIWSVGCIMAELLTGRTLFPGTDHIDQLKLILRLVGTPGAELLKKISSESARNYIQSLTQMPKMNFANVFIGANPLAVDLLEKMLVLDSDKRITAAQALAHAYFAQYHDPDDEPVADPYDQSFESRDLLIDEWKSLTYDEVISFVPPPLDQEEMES

Row | IC50 [µM] | Structure (SMILES)
1 | ≤ 5 | CC(C)n1c(N)nc2ccc(-c3n[nH]nc3-c3ccccc3)cc21
2 | ≤ 5 | Nc1nc2ccc(-c3nc(-c4c(F)cccc4Cl)[nH]c3-c3ccc(F)cc3F)cc2n1CC1CC1
3 | ≤ 5 | Nc1nc2ccc(-c3nc(-c4c(F)cccc4C(F)(F)F)[nH]c3-c3ccccc3)cc2n1CC1CC1
4 | ≤ 5 | CC(C)Cn1c(N)nc2ccc(-c3c(-c4ccccc4)nc4ccccn34)cc21
5 | ≤ 5 | CC(C)Cn1c(N)nc2ccc(-c3cn(C(C)(C)C)nc3-c3ccc(F)cc3)cc21
6 | ≤ 5 | CC(C)(C)Cn1c(N)nc2ccc(-c3[nH]c(C(C)(C)C)nc3-c3ccccc3)cc21
7 | ≤ 5 | CC(C)Cn1c(N)nc2ccc(-c3[nH]c(-c4c(F)cccc4C(F)(F)F)nc3-c3ccccc3)cc21
8 | ≤ 5 | Cc1nc(-c2ccc(F)cc2F)c(-c2ccc3ncn(CC(C)C)c3c2)[nH]1
9 | ≤ 5 | Nc1nc2ccc(-c3nc(C4CC4)[nH]c3-c3ccc(F)cc3F)cc2n1CC1CC1
10 | ≤ 5 | CC(C)Cn1c(N)nc2ccc(-c3[nH]c(-c4c(F)cccc4C(F)(F)F)nc3-c3ccc(F)cc3F)cc21
11 | ≤ 5 | CC(C)Cn1c(N)nc2ccc(-c3[nH]c(C(F)(F)F)nc3-c3ccccc3)cc21
12 | ≤ 5 | CC(C)n1c(N)nc2ccc(-c3[nH]c(-c4ccccc4)nc3-c3ccccc3)cc21
13 | ≤ 5 | Nc1nc2ccc(-c3[nH]c(-c4c(F)cccc4F)nc3-c3ccccc3)cc2n1Cc1cccc(F)c1
14 | ≤ 5 | CC(C)n1c(N)nc2ccc(-c3[nH]c(-c4c(F)cccc4F)nc3-c3ccccc3)cc21
15 | ≤ 5 | C[C@H](n1c(N)nc2ccc(-c3[nH]c(-c4c(F)cccc4F)nc3-c3ccccc3)cc21)C(C)(C)C
16 | ≤ 5 | CC(C)Cn1c(N)nc2ccc(-n3ccnc3-c3ccccc3)cc21
17 | ≤ 5 | CCCCn1cnc2ccc(-c3[nH]c(-c4c(F)cccc4F)nc3-c3ccccc3)cc21
18 | ≤ 5 | CC(C)Cn1c(N)nc2ccc(-c3c(-c4ccccc4)nc(C4CCCCC4)n3C)cc21
19 | ≤ 5 | CC(C)Cn1c(N)nc2ccc(-c3c(-c4ccccc4)ncn3C)cc21
20 | ≤ 5 | Cc1nc2ccc(-c3c(-c4ccccc4)ncn3C3CCCCC3)cc2n1CC(C)C
21 | ≤ 5 | CC(C)Cn1c(N)nc2ccc(-c3oc(C(C)(C)C)nc3-c3ccc(F)cc3)cc21
22 | ≤ 5 | Nc1nc2ccc(-c3nc(-c4c(F)cccc4F)[nH]c3-c3ccc(F)cc3F)cc2n1CC1CC1
23 | ≤ 5 | CC(C)Cn1c(N)nc2ccc(-c3c(-c4ccccc4)ncn3C3CCCCC3)cc21

Row | IC50 [µM] | Structure (SMILES)
24 | ≤ 5 | CC(C)Cn1c(N)nc2ccc(-c3[nH]c(-c4c(F)cccc4Cl)nc3-c3ccccc3)cc21
25 | ≤ 5 | CC(C)Cn1cnc2ccc(-c3c(-c4ccccc4)ncn3C3CCCCC3)cc21
26 | ≤ 5 | CC(C)C(C)n1c(N)nc2ccc(-c3[nH]c(-c4c(F)cccc4F)nc3-c3ccccc3)cc21 (configuration not stated)
27 | ≤ 5 | Nc1nc2ccc(-c3[nH]c(-c4c(F)cccc4F)nc3-c3ccccc3)cc2n1CC1CCCCC1
28 | ≤ 5 | Cc1nc2ccc(-c3cn[nH]c3-c3ccc(F)cc3)cc2n1CC(C)C
29 | ≤ 5 | Nc1nc2ccc(-c3nc(-c4c(Cl)cccc4Cl)[nH]c3-c3ccc(F)cc3F)cc2n1CC1CC1
30 | ≤ 5 | CC(C)Cn1c(N)nc2ccc(-c3[nH]c(C4CC4)nc3-c3ccc(F)cc3)cc21
31 | ≤ 5 | CC(C)(C)Cn1cnc2ccc(-c3[nH]c(-c4c(F)cccc4F)nc3-c3ccccc3)cc21
32 | ≤ 5 | C[C@H](n1c(N)nc2ccc(-c3[nH]c(C(C)(C)C)nc3-c3ccccc3)cc21)C(C)(C)C
33 | ≤ 5 | CCn1c(N)nc2ccc(-c3[nH]c(-c4c(F)cccc4F)nc3-c3ccccc3)cc21
34 | ≤ 5 | CC(C)Cn1c(N)nc2ccc(-c3nc(-c4c(Cl)cccc4Cl)[nH]c3-c3ccc(F)cc3)cc21
35 | ≤ 5 | CC(C)Cn1c(N)nc2ccc(-c3n[nH]nc3-c3ccc(F)cc3)cc21
36 | ≤ 5 | CC(C)(C)Cn1c(N)nc2ccc(-c3[nH]c(-c4c(F)cccc4F)nc3-c3ccccc3)cc21
37 | ≤ 5 | Cc1ccsc1-c1nc(-c2ccc3nc(N)n(CC(C)C)c3c2)c(-c2ccccc2)[nH]1
38 | ≤ 5 | CC(C)Cn1cnc2ccc(-c3n[nH]nc3-c3ccccc3)cc21
39 | ≤ 5 | CC(C)Cn1c(N)nc2ccc(-c3[nH]c(C(C)(C)C)nc3-c3ccc(F)cc3)cc21
40 | ≤ 5 | CCn1cnc2ccc(-c3[nH]c(-c4c(F)cccc4F)nc3-c3ccccc3)cc21
41 | ≤ 5 | Cc1onc(-c2ccccc2)c1-c1ccc2nc(N)n(S(=O)(=O)C(C)C)c2c1
42 | ≤ 5 | CCOCn1nc(-c2ccccc2)c(-c2ccc3nc(N)n(CC(C)C)c3c2)n1
43 | ≤ 5 | CC(C)Cn1c(N)nc2ccc(-c3[nH]c(C4CC4)nc3-c3ccccc3)cc21
44 | ≤ 5 | CC(C)Cn1c(N)nc2ccc(-c3[nH]c(-c4ccc(Cl)cc4)nc3-c3ccccc3)cc21
45 | ≤ 5 | CC(C)Cn1c(N)nc2ccc(-c3nc(-c4c(C(F)(F)F)cccc4C(F)(F)F)[nH]c3-c3ccccc3)cc21
46 | ≤ 5 | CC(C)Cn1c(N)nc2ccc(-c3cn(C)nc3-c3ccccc3)cc21

Row | IC50 [µM] | Structure (SMILES)
47 | ≤ 5 | CC(n1c(N)nc2ccc(-c3[nH]c(-c4c(F)cccc4F)nc3-c3ccccc3)cc21)C(C)(C)C (configuration not stated)
48 | ≤ 5 | CCCn1cnc2ccc(-c3[nH]c(-c4c(F)cccc4F)nc3-c3ccccc3)cc21
49 | ≤ 5 | CC(C)Cn1c(N)nc2ccc(-c3cn(C(C)C)nc3-c3ccccc3)cc21
50 | ≤ 5 | CC(C)Cn1c(N)nc2ccc(-c3cn[nH]c3-c3ccc(F)cc3)cc21
51 | ≤ 5 | CCCCn1c(N)nc2ccc(-c3[nH]c(-c4c(F)cccc4F)nc3-c3ccccc3)cc21
52 | ≤ 5 | Nc1nc2ccc(-c3[nH]c(-c4c(F)cccc4F)nc3-c3ccccc3)cc2n1-c1ccccc1
53 | ≤ 5 | CC(C)Cn1c(N)nc2ccc(-c3n[nH]nc3-c3ccccc3)cc21
54 | ≤ 5 | Cn1c(N)nc2ccc(-c3[nH]c(-c4c(F)cccc4F)nc3-c3ccccc3)cc21
55 | ≤ 5 | CC(C)Cn1c(N)nc2ccc(-c3[nH]c(-c4ccc(Cl)cc4)nc3-c3ccc(F)cc3)cc21
56 | ≤ 5 | C[C@H](n1c(N)nc2ccc(-c3[nH]c(-c4c(F)cccc4Cl)nc3-c3ccccc3)cc21)C(C)(C)C
57 | ≤ 5 | CC(C)Cn1c(N)nc2ccc(-c3[nH]c(-c4c(F)cccc4Cl)nc3-c3ccc(F)cc3F)cc21
58 | ≤ 5 | CC(C)Cn1c(N)nc2ccc(-c3nc(-c4c(F)cccc4Cl)[nH]c3-c3ccc(F)cc3)cc21
59 | ≤ 5 | CC(C)Cn1c(N)nc2ccc(-c3[nH]c(C(C)(C)C)nc3-c3ccccc3)cc21
60 | ≤ 5 | CC(C)(C)Cn1c(N)nc2ccc(-c3nc(-c4c(Cl)cccc4Cl)[nH]c3-c3ccccc3)cc21
61 | ≤ 5 | CC(C)Cn1c(N)nc2ccc(-c3n[nH]nc3-c3ccc(F)cc3F)cc21
62 | ≤ 5 | CC(C)(C)c1nc(-c2ccc3nc(N)n(CC4CC4)c3c2)c(-c2ccc(F)cc2F)[nH]1
63 | ≤ 5 | CC(C)Cn1c(N)nc2ccc(-c3c(-c4ccccc4)nc(-c4ccc(Cl)cc4)n3C)cc21
64 | ≤ 5 | Nc1nc2ccc(-c3nc(-c4c(F)cccc4Cl)[nH]c3-c3ccccc3)cc2n1CC1CC1
65 | ≤ 5 | CC(C)Cn1c(N)nc2ccc(-c3oc(C(C)(C)C)nc3-c3ccc(F)cc3F)cc21
66 | ≤ 5 | CC(C)Cn1c(N)nc2ccc(-c3[nH]c(C(C)(C)C)nc3-c3ccc(F)cc3F)cc21
67 | ≤ 5 | CC(C)Cn1c(N)nc2ccc(-c3[nH]c(-c4c(F)cc(OCCN5CCCC5)cc4F)nc3-c3ccccc3)cc21
